Results as given in PubChem BioAssay (NCI).
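Protocol summary: plate cells (96-well), add compound at 5 concentrations, incubate 48 h, interpolate endpoints linearly. TGI: concentration producing complete growth inhibition.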 Where a SMILES comes first, the peptide text is derived from it. The star is where a group is joined. Cbz = O=C(OCc1ccccc1)*

What follows are molecules tested on HOP-62 NSCLC (assay: NCI anticancer screen, dose series, 48 h).
`COc1ccc(C2(CC(C)C)CCN(S(=O)(=O)c3ccc(C)cc3)C2)cc1OC` (centres undefined) showed a TGI of over 100 µM. `CCOC(=O)c1sc2nc(SC)nc(Nc3ccc4c(c3)OCCO4)c2c1N` showed a TGI of 29.5 µM. In the case of `CC1(C)OP(=O)(O)C=C1Sc1ccc([N+](=O)[O-])cc1[N+](=O)[O-]`, the TGI is reported as over 100 µM.

Each molecule was assayed on HOP-92 NSCLC (assay: NCI anticancer screen, dose series, 48 h).
`COC(=O)C1=C(OC)[C@H]2C#C/C=C\C#C[C@@H]3Nc4c(cc(O)c5c4C(=O)c4ccccc4C5=O)[C@]24O[C@@]34[C@H]1C` gave a TGI of under 0.01 µM. For `CCOC(=O)CCC(NC(=O)OCc1ccccc1)C(=O)NC(CCC(=O)OCC)C(=O)OCC` (centres undefined) (Cbz-Glu(OEt)-Glu(OEt)-OEt; configuration not given here), the TGI was over 100 µM. Work on `CCOC(=O)C(NC(=O)c1ccccc1)(N1CCN(c2cc3c(cc2F)c(=O)c(C(=O)O)cn3C2CC2)CC1)C(F)(F)F` (centres undefined) yielded a TGI of 38 µM. With `O=c1cc(NNc2cccc(Cl)c2)[nH]c(=O)[nH]1` the TGI was 35.5 µM. `CCOC(=O)c1sc2nc(SC)nc(Nc3ccc4c(c3)OCCO4)c2c1N` was tested, and the TGI was 27.4 µM. Molecule `CC1(C)OP(=O)(O)C=C1Sc1ccc([N+](=O)[O-])cc1[N+](=O)[O-]` has a TGI of over 100 µM.

The molecules below were run on HS 578T breast (assay: NCI anticancer screen, dose series, 48 h).
Work on `COC(=O)C1=C(OC)[C@H]2C#C/C=C\C#C[C@@H]3Nc4c(cc(O)c5c4C(=O)c4ccccc4C5=O)[C@]24O[C@@]34[C@H]1C` yielded a TGI of 3.82 µM. In the case of `CCOC(=O)CCC(NC(=O)OCc1ccccc1)C(=O)NC(CCC(=O)OCC)C(=O)OCC` (centres undefined) (Cbz-Glu(OEt)-Glu(OEt)-OEt; configuration not given here), the TGI is reported as over 100 µM. Work on `CCOC(=O)C(NC(=O)c1ccccc1)(N1CCN(c2cc3c(cc2F)c(=O)c(C(=O)O)cn3C2CC2)CC1)C(F)(F)F` (centres undefined) yielded a TGI of 66.3 µM. `O=c1cc(NNc2cccc(Cl)c2)[nH]c(=O)[nH]1` was tested, and the TGI was over 100 µM. Work on `CC1(C)OP(=O)(O)C=C1Sc1ccc([N+](=O)[O-])cc1[N+](=O)[O-]` yielded a TGI of over 100 µM.

The molecules below were run on HT29 colon (assay: NCI anticancer screen, dose series, 48 h).
Work on `COC(=O)C1=C(OC)[C@H]2C#C/C=C\C#C[C@@H]3Nc4c(cc(O)c5c4C(=O)c4ccccc4C5=O)[C@]24O[C@@]34[C@H]1C` yielded a TGI of under 0.0409 µM. `CCOC(=O)CCC(NC(=O)OCc1ccccc1)C(=O)NC(CCC(=O)OCC)C(=O)OCC` (centres undefined) (Cbz-Glu(OEt)-Glu(OEt)-OEt; configuration not given here) showed a TGI of over 100 µM. `COc1ccc(C2(CC(C)C)CCN(S(=O)(=O)c3ccc(C)cc3)C2)cc1OC` (centres undefined) gave a TGI of over 100 µM. `O=c1cc(NNc2cccc(Cl)c2)[nH]c(=O)[nH]1` gave a TGI of over 100 µM. Work on `CCOC(=O)c1sc2nc(SC)nc(Nc3ccc4c(c3)OCCO4)c2c1N` yielded a TGI of 53.3 µM. For `CC1(C)OP(=O)(O)C=C1Sc1ccc([N+](=O)[O-])cc1[N+](=O)[O-]`, the TGI was over 100 µM.

What follows are molecules tested on IGROV1 ovarian (assay: NCI anticancer screen, dose series, 48 h).
In the case of `COC(=O)C1=C(OC)[C@H]2C#C/C=C\C#C[C@@H]3Nc4c(cc(O)c5c4C(=O)c4ccccc4C5=O)[C@]24O[C@@]34[C@H]1C`, the TGI is reported as 0.167 µM. In the case of `CCOC(=O)CCC(NC(=O)OCc1ccccc1)C(=O)NC(CCC(=O)OCC)C(=O)OCC` (centres undefined) (Cbz-Glu(OEt)-Glu(OEt)-OEt; configuration not given here), the TGI is reported as over 100 µM. For `CCOC(=O)C(NC(=O)c1ccccc1)(N1CCN(c2cc3c(cc2F)c(=O)c(C(=O)O)cn3C2CC2)CC1)C(F)(F)F` (centres undefined), the TGI was 92.5 µM. In the case of `COc1ccc(C2(CC(C)C)CCN(S(=O)(=O)c3ccc(C)cc3)C2)cc1OC` (centres undefined), the TGI is reported as over 100 µM. Molecule `O=c1cc(NNc2cccc(Cl)c2)[nH]c(=O)[nH]1` has a TGI of over 100 µM. In the case of `CCOC(=O)c1sc2nc(SC)nc(Nc3ccc4c(c3)OCCO4)c2c1N`, the TGI is reported as 78.6 µM. `CC1(C)OP(=O)(O)C=C1Sc1ccc([N+](=O)[O-])cc1[N+](=O)[O-]` gave a TGI of over 100 µM.

Each molecule was assayed on K-562 leukemia (assay: NCI anticancer screen, dose series, 48 h).
Work on `c1ccc2c(c1)Nc1cccc3c1c-2nc1ccccc13` yielded a TGI of 2.92 µM. `COC(=O)C1=C(OC)[C@H]2C#C/C=C\C#C[C@@H]3Nc4c(cc(O)c5c4C(=O)c4ccccc4C5=O)[C@]24O[C@@]34[C@H]1C` was tested, and the TGI was 0.0139 µM. With `CCOC(=O)CCC(NC(=O)OCc1ccccc1)C(=O)NC(CCC(=O)OCC)C(=O)OCC` (centres undefined) (Cbz-Glu(OEt)-Glu(OEt)-OEt; configuration not given here) the TGI was over 100 µM. Molecule `CCOC(=O)C(NC(=O)c1ccccc1)(N1CCN(c2cc3c(cc2F)c(=O)c(C(=O)O)cn3C2CC2)CC1)C(F)(F)F` (centres undefined) has a TGI of 46.6 µM. With `COc1ccc(C2(CC(C)C)CCN(S(=O)(=O)c3ccc(C)cc3)C2)cc1OC` (centres undefined) the TGI was 76.5 µM. With `O=c1cc(NNc2cccc(Cl)c2)[nH]c(=O)[nH]1` the TGI was over 100 µM. With `CCOC(=O)c1sc2nc(SC)nc(Nc3ccc4c(c3)OCCO4)c2c1N` the TGI was over 100 µM. Molecule `CC1(C)OP(=O)(O)C=C1Sc1ccc([N+](=O)[O-])cc1[N+](=O)[O-]` has a TGI of over 100 µM.

Each molecule was assayed on KM12 colon (assay: NCI anticancer screen, dose series, 48 h).
`c1ccc2c(c1)Nc1cccc3c1c-2nc1ccccc13` gave a TGI of 3.44 µM. With `COC(=O)C1=C(OC)[C@H]2C#C/C=C\C#C[C@@H]3Nc4c(cc(O)c5c4C(=O)c4ccccc4C5=O)[C@]24O[C@@]34[C@H]1C` the TGI was 0.0475 µM. `CCOC(=O)CCC(NC(=O)OCc1ccccc1)C(=O)NC(CCC(=O)OCC)C(=O)OCC` (centres undefined) (Cbz-Glu(OEt)-Glu(OEt)-OEt; configuration not given here) was tested, and the TGI was over 100 µM. `CCOC(=O)C(NC(=O)c1ccccc1)(N1CCN(c2cc3c(cc2F)c(=O)c(C(=O)O)cn3C2CC2)CC1)C(F)(F)F` (centres undefined) was tested, and the TGI was 31.7 µM. Molecule `COc1ccc(C2(CC(C)C)CCN(S(=O)(=O)c3ccc(C)cc3)C2)cc1OC` (centres undefined) has a TGI of 68 µM. With `O=c1cc(NNc2cccc(Cl)c2)[nH]c(=O)[nH]1` the TGI was over 100 µM. In the case of `CCOC(=O)c1sc2nc(SC)nc(Nc3ccc4c(c3)OCCO4)c2c1N`, the TGI is reported as 78.5 µM. For `CC1(C)OP(=O)(O)C=C1Sc1ccc([N+](=O)[O-])cc1[N+](=O)[O-]`, the TGI was over 100 µM.

The molecules below were run on LOX IMVI melanoma (assay: NCI anticancer screen, dose series, 48 h).
`COC(=O)C1=C(OC)[C@H]2C#C/C=C\C#C[C@@H]3Nc4c(cc(O)c5c4C(=O)c4ccccc4C5=O)[C@]24O[C@@]34[C@H]1C` was tested, and the TGI was under 0.01 µM. In the case of `CCOC(=O)CCC(NC(=O)OCc1ccccc1)C(=O)NC(CCC(=O)OCC)C(=O)OCC` (centres undefined) (Cbz-Glu(OEt)-Glu(OEt)-OEt; configuration not given here), the TGI is reported as over 100 µM. For `COc1ccc(C2(CC(C)C)CCN(S(=O)(=O)c3ccc(C)cc3)C2)cc1OC` (centres undefined), the TGI was 74.3 µM. `O=c1cc(NNc2cccc(Cl)c2)[nH]c(=O)[nH]1` showed a TGI of 29.6 µM. `CCOC(=O)c1sc2nc(SC)nc(Nc3ccc4c(c3)OCCO4)c2c1N` gave a TGI of over 100 µM. `CC1(C)OP(=O)(O)C=C1Sc1ccc([N+](=O)[O-])cc1[N+](=O)[O-]` showed a TGI of over 100 µM.
